In US5484778A, “Phthalocyanine photosensitizers for photodynamic therapy and methods for their use” (priority 1993, dated 1996):
Read-outs that look alike come from different tables or passages of the source.

Experiments:
[1] = system: Chinese hamster V79-379 cells; test: Growth delay of V79 cultures after red light (Table 1); assay type: cell-based; conditions: for Growth Delay, efficiency relative to 1 μM AlPcCl: 18 h, 12 kJ/m^2 red light; for inhibition of V79 culture growth (in words): red light 12 kJ/m^2, three day period
Experimental: (§1) Chinese hamster V79-379 lung fibroblasts were grown in monolayer culture in McCoy's 5A medium (Gibco Laboratories, Grand Island, N.Y.) augmented with 10% calf serum and buffered with 20 mM HEPES (pH 7.4).
(§2) The cells were treated with 1 μM AlPcCl (from Eastman Kodak, Rochester, N.Y.) or with phthalocyanine compositions I-VI (0.5-1.0 μM final concentration in the medium) for 18 hours by adding the appropriate volume of a 1.0 mM stock solution in dimethylformamide (DMF) to the culture medium. The growth medium was replaced with 4 ml Hank's balanced salt solution (HBSS), and the cells were irradiated. The light source was a 500 W tungsten-halogen lamp located approximately 29 inches below the surface of a glass exposure tray. The visible light administered to the cells was filtered to allow passage of only that portion of the visible spectrum above 600 nm (Lee Primary red filter No. 106, Vincent Lighting, Cleveland, Ohio). The fluence rate was approximately 0.074 kJ/m^2 /s at the level of the cell monolayer.
At the time of light exposure, there were approximately 1.5×10^5 cells per 25 cm^2 flask. Following irradiation, the HBSS was replaced by 10 ml of fresh complete growth medium, and the cultures were returned to the 37° C. incubator. At various times before and after irradiation, duplicate cultures were trypsinized and counted. Controls included untreated cells and cells treated with light alone or drug alone. In addition, in each experiment, the drug to be tested was compared to a standard treatment, i.e. 1 μM AlPcCl for 18 hours followed by 12 kJ/m^2 light.
The inhibition of V79 culture growth was measured during a three day period following red light irradiation (12 kJ/m^2) of phthalocyanine-pretreated cells. With each of the active compounds, as well as with AlPcCl, there was an initial decrease in cell density, as dead cells became detached from the monolayer. Thereafter, the cell number per flask increased, as living cells grew and divided. The time for the cell density to recover to the level at the time of light exposure was considered the growth delay. […] The ratio of the growth delay for the test photosensitizer and the growth delay for AlPcCl measured in the same experiment is recorded in Table 1.

[2] = system: Chinese hamster V79-379 cells; test: Clonogenic cell survival / photocytotoxicity in V79 cells (Table 1, FIG. 1, FIG. 2); assay type: cell-based; conditions: for CF10 (AlPcCl)/CF10 (Pc) / F10 (AlPcCl)/F10 (Pc): 1.0 μM, 18 h; for CF10 (AlPcCl)/CF10 (Pc): CF10 = intracellular concentration x fluence reducing survival to 10%; for F10 (AlPcCl)/F10 (Pc): F10 = fluence reducing survival to 10%
Experimental: FIG. 1 is a graph illustrating the photodynamic efficacy of the various compositions of the present invention in comparison to AlPcCl. The phthalocyanine composition compounds of the present invention were tested for their photodynamic efficiency against Chinese hamster fibroblast V79 cells by colony formation. Monolayer cultures were treated with the indicated phthalocyanine composition for 18 hours, irradiated with various fluences of red light, and immediately trypsinized and replated at appropriate aliquots in triplicate. Colonies of at least 50 cells were counted after 7-10 days. The plating efficiency of the untreated cells was approximately 90%.
In this regard, in FIG. 2 the data of FIG. 1 were replotted as a function of the product of the amount of cell-associated phthalocyanine and the light fluence.
as §1, §2
Cells were irradiated at a density of approximately 2×10^6 per 25 cm^2 flask. Immediately after irradiation, the cell monolayer was treated with trypsin, and appropriate aliquots were plated in triplicate to give 100 to 200 colonies in each 10-cm Petri dish. Cell survival was determined by the ability of the cells to form colonies containing at least 50 cells. The response of cells treated with 1 μM AlPcCl and light was compared in each experiment.
Photocytotoxicity of the phthalocyanines compounds I to VI was also assessed by clonogenic assay (Table 1, FIG. 1). In all experiments, 1 μM AlPcCl was included for comparison purposes. From the survival curves (FIG. 1), the fluence reducing the cell survival to 10% (F10) was obtained. The ratio of the F10 for AlPcCl and the F10 for the test compound is recorded in Table 1.
In order to take differences in cellular uptake into consideration in the assessment of the relative efficiency of these phthalocyanines as photosensitizers of V79 cells, the survival data were replotted against the product of intracellular phthalocyanine concentration and light fluence (FIG. 2). From these curves, the product of intracellular concentration and light fluence reducing survival to 10% (CF10) was obtained, and comparisons of the values for AlPcCl and the test compounds are recorded in Table 1.

[3] = system: Chinese hamster V79-379 cells; test: Uptake of phthalocyanines by V79 cells relative to AlPcCl (Table 1); assay type: cell-based
Experimental: as §1
Total uptake was determined by scraping the phthalocyanine-treated monolayer, collecting the cells on a glass-fiber filter, and extracting the phthalocyanine in ethanol, as previously described by Ramakrishnan, et al., 1989. (Ramakrishnan, N., M. E. Clay, M. F. Horng, A. R. Antunez, & H. H. Evans, "DNA Lesions and DNA Degradation in Mouse Lymphoma L5178Y Cells After Photodynamic Treatment Sensitized by Chloroaluminum Phthalocyanine",Photochem. Photobiol, in press, 1989). The amount of drug was determined by absorption at 674 nm and expressed relative to the number of cells, as measured in a Coulter cell counter on an aliquot of the cell population. Controls included cells not treated with drug, medium alone, and drug-containing medium without cells. The results of the total uptake of the various compositions of the present invention in comparison to AlPcCl are set forth below in Table 1.
as §2
All of the compounds have been examined for the extent of cellular uptake after exposure of V79 cells to 1 μM or less in complete medium, and the data of Table 1 are presented relative to the uptake from 1 μM AlPcCl, which was 0.723±0.172 nmole/10^7 cells (mean ±S. D., 25 determinations). […] In particular, when the concentration of Compound IV was 1 μM in the medium, the uptake into the cells was sufficiently high that some of the uptake and phototoxicity studies were repeated at 0.5 μM.

[4] = white light
L5178Y cells = test: Induction of apoptosis (DNA fragmentation) in L5178Y-R cells (Table 6); assay type: cell-based, mouse; conditions: 0.5 μM, DMF-Tween 80
Experimental: Mouse lymphoma L5178y-R (hereinafter also referred to as "LY-R") cells were grown in suspension culture as described in Ramakrishnan N., Oleinick, N. L. Clay, M. E., Horng, M. F., Antunez, A. R., and Evans H. H., DNA lesions and DNA degradation in mouse lymphoma L5178Y cells after photodynamic treatment sensitized by chloroaluminum phthalocyanine. Photochem. Photobiol. 50, 373-378, 1989 and Agarwal, M. L., Clay, M. E., Harvey, E. J., Evans, H. H., Antunez, A. R., and Oleinick, N. L. Photodynamic therapy induces rapid cell death by apoptosis in L5178Y mouse lymphoma cells. Cancer Res., 51, 5993-5996, 1991.
The cells were used while in exponential growth. Stock solutions of either 0.5 or 1 mM of PcIV, PcXII, PcX, PcXVIII were prepared in dimethylformamide unless otherwise indicated and added to the 10 mL medium at a rate of 1 μL per mL. After allowing 18 hours for uptake of the phthalocyanine into the cells, the flasks containing the cultures were placed on a glass exposure tray above a 500-W tungsten-halogen lamp. The exposure tray was fitted with a 600-nm high-pass filter. Flasks were exposed to various fluences of red light (up to 30 kJ/m^2) at a fluence rate of approximately 74 W/m^2). After irradiation, the cells were collected by centrifugation.
For measurement of clonogenic cell survival, aliquots were plated in medium containing soft agar as described in Ramakrishnan N., Oleinick, N. L. Clay, M. E., Horng, M. F., Antunez, A. R., and Evans H. H., DNA lesions and DNA degradation in mouse lymphoma L5178Y cells after photodynamic treatment sensitized by chloroaluminum phthalocyanine. Photochem. Photobiol. 50, 373-378, 1989. The aliquots were plated in sufficient numbers to produce 50-200 colonies. The dishes were kept in an incubator at 37° C. in an atmosphere of 5% CO2 and 95% air for 10-14 days to allow viable cells to form colonies. Colonies were counted by eye. Controls treated with the phthalocyanine alone had plating efficiencies of ~90%. The plating efficiencies of the treated cells are normalized to the plating efficiencies of control cells in each experiment. For measurement of the induction of apoptosis, DNA was isolated from the treated and control cells 2 hours after photodynamic therapy, subjected to electrophoresis on 1.5% agarose, stained with ethidium bromide, and visualized by UV transillumination, as described in Agarwal et. al. The results are shown in Tables 4, 5 and 6 and in FIG. 3.
Cells were treated with various concentrations of the compounds listed in the table and various light fluences. DNA gels were prepared and examined for the characteristic "ladder" pattern of DNA fragments. For each Pc, the minimum total PDT dose tested (calculated as the product of the minimum phthalocyanine concentration and the minimum fluence) which produced visible DNA fragments is recorded. […] PcXVIII was also added at 0.5 and 1.0 μM.

V79 cells = test: Clonogenicity, killing of V79 cells using photodynamic therapy (Table 3); assay type: cell-based, Chinese hamster; conditions: Cricetulus griseus, V79; concentration not given, at 10 kJ/m^2; read-out: Maximum Effect (% survival)
In short: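 V79 Chinese hamster lung fibroblasts were loaded with 0.5 or 1.0 μM phthalocyanine, then about 18 h later irradiated with increasing doses of 675 nm broad-band red light (tungsten-halogen lamp, 600 nm high-pass filter). Recorded value is the light dose killing 90% of cells, or, failing that, the maximum kill (% survival) and its dose.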

## C[N+](C)(C)CCC[Si](C)(C)[O][Al-2]123[n]4c5c6ccccc6c4N=c4c6ccccc6c([n]41)=NC1=[N+]2C(=NC2=[N+]3C(=N5)c3ccccc32)c2ccccc21.I [Compound II, AlPcOSi(CH3)2 (CH2)3 N(CH3)3^+ I^-]
[1]
  Growth Delay, efficiency relative to 1 μM AlPcCl: 3.4
  inhibition of V79 culture growth (in words): substantial inhibition
[2]
  photosensitizing efficiency / photocytotoxicity (in words): nearly as efficient photosensitizers as AlPcCl
  CF10 (AlPcCl)/CF10 (Pc): 0.72
  F10 (AlPcCl)/F10 (Pc): 0.99

## CN(C)CCC[Si](C)(C)[O][Al]1[n]2c3c4ccccc4c2N=C2N=C(N=c4c5ccccc5c([n]41)=NC1=NC(=N3)c3ccccc31)c1ccccc12 [Compound I, AlPcOSi(CH3)2 (CH2)3 N(CH3)2]
Solubility
  solubility in solvents: soluble in CH2 Cl2 and toluene
[3]; 1.0 μM, 18 h
  Uptake, efficiency relative to 1 μM AlPcCl: 2.3
[3]; V79 cells, 1 μM or less, compared with AlPcCl
  cellular uptake (in words): taken up into the cells more efficiently than was AlPcCl
[1]
  Growth Delay, efficiency relative to 1 μM AlPcCl: 2.1
  inhibition of V79 culture growth (in words): substantial inhibition
[2]
  CF10 (AlPcCl)/CF10 (Pc): 0.51
  F10 (AlPcCl)/F10 (Pc): 0.94
[2]; V79 cells, red light
  photosensitizing efficiency / photocytotoxicity (in words): nearly as efficient photosensitizers as AlPcCl

## CCN(CCC[Si](C)(C)O[Si]1(C)n2c3c4ccccc4c2N=C2N=C(N=c4c5ccccc5c(n41)=NC1=NC(=N3)c3ccccc31)c1ccccc12)CCN(C)C (centres unmarked) [CH3 SiPcOSi(CH3)2 (CH2)3 N(CH2 CH3)(CH2)2 N(CH3)2]
[4]
  photolysis of solutions: rapidly photolyzed by white light

## C[Si](C)(CCCN1CCNCC1)O[Si]1(O[Si](C)(C)CCCN2CCNCC2)n2c3c4ccccc4c2N=C2N=C(N=c4c5ccccc5c(n41)=NC1=NC(=N3)c3ccccc31)c1ccccc12 [Compound XXXII, SiPc[OSi(CH3)2 (CH2)3 NC4 H8 NH]2]
Solubility
  solubility in DMF: not soluble in DMF
L5178Y cells
  Minimum Demonstrated Condition to induce apoptosis: C × F: 2.5 μm × kJ/m^2
  Minimum Demonstrated Condition to induce apoptosis: Fluence: 5 kJ/m^2

## CN(C)CCCN(CCCN(C)C)CCC[Si](C)(C)O[Si]1(C)n2c3c4ccccc4c2N=C2N=C(N=c4c5ccccc5c(n41)=NC1=NC(=N3)c3ccccc31)c1ccccc12 (centres unmarked) [CH3 SiPcOSi(CH3)2 (CH2)3 N[(CH2)3 N(CH3)2]2]
[4]
  photolysis of solutions: rapidly photolyzed by white light

## [Cl][Al]1[n]2c3c4ccccc4c2N=C2N=C(N=c4c5ccccc5c([n]41)=NC1=NC(=N3)c3ccccc31)c1ccccc12 [AlPcCl, chloroaluminum phthalocyanine, reference compound]
[3]
  uptake from 1 μM AlPcCl: 0.723±0.172 nmole/10^7 cells
[1]; 1 μM for 18 hours and 12 kJ/m^2 light
  growth delay: approximately 24 hours
[1]
  Growth Delay, efficiency relative to 1 μM AlPcCl: 1.0
[2]
  CF10 (AlPcCl)/CF10 (Pc): 1.0
  F10 (AlPcCl)/F10 (Pc): 1.0

## CN1CCN(CCC[Si](C)(C)O[Si]2(O[Si](C)(C)CCCN3CCN(C)CC3)n3c4c5ccccc5c3N=C3N=C(N=c5c6ccccc6c(n52)=NC2=NC(=N4)c4ccccc42)c2ccccc23)CC1 [Compound XXX, SiPc[OSi(CH3)2 (CH2)3 NC4 H8 NCH3]2]
Solubility
  solubility: < 500 µM
  solubility in DMF: not soluble in DMF
L5178Y cells
  Minimum Demonstrated Condition to induce apoptosis: C × F: 7.5 μm × kJ/m^2
  Minimum Demonstrated Condition to induce apoptosis: Fluence: 15.0 kJ/m^2
V79 cells
  Cell survival at highest light dose: 30%

## CN1CCN(CCC[Si](C)(C)O[Si]2(C)n3c4c5ccccc5c3N=C3N=C(N=c5c6ccccc6c(n52)=NC2=NC(=N4)c4ccccc42)c2ccccc23)CC1 (centres unmarked) [CH3 SiPcOSi(CH3)2 (CH2)3 NC4 H8 NCH3]
[4]
  photolysis of solutions: rapidly photolyzed by white light
